The subject of one data set is Sprague-Dawley rats. Kind of data set: Example 34: EPO mRNA in buffer IM in rats, serum EPO (Table 59). The conditions noted are these: dose 100 μg, 13 hours post injection. The class given is in vivo.
Data set [1] has as its system peripheral blood mononuclear cells (PBMC). Kind of data set: Example 56: percent modification, PBMC G-CSF ELISA (Table 85). The class given is cell-based, human. The conditions noted are these: 22 hours after transfection. The procedure: 480 ng of G-CSF mRNA modified with 5-methylcytosine (5mC) and pseudouridine (pseudoU) or unmodified G-CSF mRNA was transfected with 0.4 uL of Lipofectamine 2000 into peripheral blood mononuclear cells (PBMC) from three normal blood donors (D1, D2, and D3). […] The supernatant was harvested and run by ELISA 22 hours after transfection to determine the protein expression. The expression of IFN-alpha and TNF-alpha may be a secondary effect from the transfection of the G-CSF mRNA.

The test system of a further data set is Balb-C mice. Put plainly: Example 79: fibrin sealant (Tisseel) with luciferase mRNA SC in mice, total flux (Tables 119, 120). Type of data set: in vivo. The conditions noted are these: subcutaneous. The protocol: The thrombin and fibrinogen components were loaded separately into a dual barreled syringe. […] The injection of fibrinogen and thrombin was done simultaneously using the dual-barreled syringe. The subcutaneous injection of luciferase was done 15 minutes after the fibrinogen/thrombin injection to allow the fibrin hydrogel to polymerize (Tisseel+Luciferase group). A control group of untreated mice were also evaluated. The mice were imaged at 5 hours and 24 hours. Twenty minutes prior to imaging, mice were injected intraperitoneally with a D-luciferin solution at 150 mg/kg. Animals were then anesthetized and images were acquired with an IVIS Lumina II imaging system (Perkin Elmer). Bioluminescence was measured as total flux (photons/second) of the entire mouse.

From patent US20190142971A1, “FORMULATION AND DELIVERY OF MODIFIED NUCLEOSIDE, NUCLEOTIDE, AND NUCLEIC ACID COMPOSITIONS” (ModernaTX, Inc., priority 2013, published 2019) come the findings set out here.

For “Luciferase: luciferase mRNA, SEQ ID NO: 14, Cap1, fully modified with 5-methylcytosine and pseudouridine”, in the data set on Sprague-Dawley rats, the “human EPO in serum, Avg.” value amounted to 24.5 pg/mL. In the data set on Sprague-Dawley rats, the “human EPO in serum, Geometric-mean” value is 22.4 pg/mL. The “G-CSF Expression” value in data set [1] (PBMC donor D1, 480 ng mRNA) worked out at 90.2 pg/mL; in data set [1] (PBMC donor D2, 480 ng mRNA), 0.0 pg/mL; in data set [1] (PBMC donor D3, 480 ng mRNA), 22.1 pg/mL. The “Total Flux” value with Balb-C mice (5 Hours) is on record as 9.94E+05 p/s; in the data set on Balb-C mice (24 Hours), 7.44E+05 p/s.
